In article PMC8621172, “Manipulating Estrogenic/Anti-Estrogenic Activity of Triphenylethylenes towards Development of Novel Anti-Neoplastic SERMs” (International Journal of Molecular Sciences, 2021):

tested on: Hs578T; experiment: NCI five-dose assay, TNBC cell line Hs578T; assay type: cell-based, human; settings: not given
Method: All compounds were subjected to the NCI in vitro disease-oriented human cells screening panel assay. The human tumor cell lines of the cancer-screening panel are grown in RPMI 1640 medium containing 5% fetal bovine serum and 2 mM L-glutamine. For a typical screening experiment, cells are inoculated into 96-well microtiter plates in 100 μL at plating densities ranging from 5000 to 40,000 cells/well depending on the doubling time of individual cell lines. After cell inoculation, the microtiter plates are incubated at 37 °C, 5% CO2, 95% air, and 100% relative humidity for 24 h prior to the addition of experimental drugs. After 24 h, two plates of each cell line are fixed in situ with TCA to represent a measurement of the cell population for each cell line at the time of drug addition. Experimental drugs are solubilized in dimethyl sulfoxide at 400-fold the desired final maximum test concentration and stored frozen prior to use. At the time of drug addition, an aliquot of frozen concentrate is thawed and diluted to twice the desired final maximum test concentration with complete medium containing 50 μg/mL gentamicin. Additional four, 10-fold, or ½ log serial dilutions are made to provide a total of five drug concentrations plus control. Aliquots of 100 μL of these different drug dilutions are added to the appropriate microtiter wells already containing 100 μL of medium, resulting in the required final drug concentrations. Following drug addition, the plates are incubated for an additional 48 h at 37 °C, 5% CO2, 95% air, and 100% relative humidity. For adherent cells, the assay is terminated by the addition of cold TCA. Cells are fixed in situ by the gentle addition of 50 μL of cold 50% (w/v) TCA (final concentration, 10% TCA) and incubated for 60 min at 4 °C. […] Bound stain is subsequently solubilized with a 10 mM trizma base, and the absorbance is read on an automated plate reader at a wavelength of 515 nm. […] Three response parameters (GI50, TGI, and LC50) were calculated for each cell line.

With CCN(CC)CCOc1ccc(C(=C(C)c2ccc(F)c(OC)c2)c2ccc(Cl)cc2)cc1 [Compound 28, E/Z-(2-{4-[1-(4-Chlorophenyl)-2-(4-fluoro-3-methoxyphenyl)-propenyl]-phenoxy}-ethyl)-diethyl-amine] the “anti-proliferative activity compared to TAM” value was “more potent than TAM”.
COc1ccc(C(C)=C(c2ccc(Cl)cc2)c2ccc(OCCN3CCCCC3)cc2)cc1F [Compound 17, E/Z-1-(2-{4-[1-(4-Chlorophenyl)-2-(3-fluoro-4-methoxyphenyl)-propenyl]-phenoxy}-ethyl)-piperidine] was tested, and the “anti-proliferative activity compared to TAM” value was “more potent than TAM”.
COc1ccc(C(C)=C(c2ccc(Cl)cc2)c2ccc(OCCN3CCCCCC3)cc2)cc1F [Compound 19, E/Z-1-(2-{4-[1-(4-Chlorophenyl)-2-(3-fluoro-4-methoxyphenyl)-propenyl]-phenoxy}-ethyl)-azepane] was tested, and the “anti-proliferative activity compared to TAM” value was “more potent than TAM”.

target: T1, human ERα (Homo sapiens, UniProt P03372); experiment: Yeast estrogen screen (YES) assay, antagonistic activity (β-galactosidase reporter); assay type: cell-based, yeast (Saccharomyces cerevisiae); settings: compounds at 1 µM in presence of 0.5 nM/1 nM E2 (E2 set as 1); triplicates
T1 construct: host or cells: Saccharomyces cerevisiae
T1 sequence (P03372 1-595): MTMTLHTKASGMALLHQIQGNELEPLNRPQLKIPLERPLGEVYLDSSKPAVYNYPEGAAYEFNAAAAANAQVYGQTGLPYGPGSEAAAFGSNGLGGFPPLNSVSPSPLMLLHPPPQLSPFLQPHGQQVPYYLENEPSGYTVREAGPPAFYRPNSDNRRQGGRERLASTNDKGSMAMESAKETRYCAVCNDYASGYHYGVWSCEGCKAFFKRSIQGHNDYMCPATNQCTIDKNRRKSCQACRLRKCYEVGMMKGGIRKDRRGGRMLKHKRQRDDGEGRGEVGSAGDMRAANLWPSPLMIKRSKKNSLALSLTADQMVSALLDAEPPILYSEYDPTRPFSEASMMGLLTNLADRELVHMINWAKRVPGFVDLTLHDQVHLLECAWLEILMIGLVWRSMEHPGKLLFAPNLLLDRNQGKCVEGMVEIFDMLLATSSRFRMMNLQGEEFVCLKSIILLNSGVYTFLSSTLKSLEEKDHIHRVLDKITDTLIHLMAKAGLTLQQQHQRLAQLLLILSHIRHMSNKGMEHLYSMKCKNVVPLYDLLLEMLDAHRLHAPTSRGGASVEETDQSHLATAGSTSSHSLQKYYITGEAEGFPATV
Method: All synthesized compounds were tested for their relative activity in β-galactosidase in a yeast estrogen screen (YES) assay. Compounds were tested for their relative estrogenic/anti-estrogenic activities in comparison to positive and negative controls, respectively. YES assay is a gene reporter assay where the DNA sequence of human ERα is integrated into the yeast genome completed with an expression plasmid carrying estrogen response elements (ERE) in the promoter controlling the expression of the reporter gene lacZ (encoding the enzyme β-galactosidase). In the presence of estrogenic compounds, β-galactosidase is synthesized and secreted into the medium, where it converts the chromogenic substrate chlorophenol red-β-D-galactopyranoside (CRPG) from a yellow to a red product, whose absorbance is measured. […] Therefore, we decided to test the novel compounds in an organ-specific in vitro model using the human Ishikawa endometrial adenocarcinoma cell line.
The yeast estrogen receptor assay was supplied by Dr. J.P. Sumpter (Brunel University, Uxbridge, UK) and was used to determine the relative transactivation activity of the human ERα as formerly described. Briefly, Saccharomyces cerevisiae stably transfected with a human ERα and an estrogen-responsive element fused to the reporter gene lacZ encoding for β-galactosidase were treated with the test substances for about 48 h. The β-galactosidase enzymatic activity was measured in a colorimetric assay using a microplate photometer by hydrolysis of the substrate chlorophenol red β-D-galactopyranoside (Roche Diagnostics, Mannheim, Germany), which leads to the formation of chlorophenol red. This can be measured as an increased absorption at 540 nm. All compounds were diluted in DMSO. […] All compounds were tested in technical quadruplicates and biological triplicates. Statistical analysis was performed by analysis of variance (ANOVA) and Tukey’s post-hoc test with the significance level of p < 0.05.

In order of falling “Anti-Estrogenic Activity (relative β-galactosidase activity)” value:
1. COc1ccc(C(C)=C(c2ccc(Cl)cc2)c2ccc(OCCCN(C)C)cc2)cc1 [Compound 10, E/Z-(3-{4-[1-(4-Chloro-phenyl)-2-(4-methoxy-phenyl)-propenyl]-phenoxy}-propyl)-dimethyl-amine]  3.92 ± 0.58
2. COc1ccc(C(C)=C(c2ccc(Cl)cc2)c2ccc(OCCN3CCCCC3)cc2)cc1 [Compound 12, E/Z-1-(2-{4-[1-(4-Chloro-phenyl)-2-(4-methoxy-phenyl)-propenyl]-phenoxy}-ethyl)-piperidine]  2.55 ± 0.41
3. CC(=C(c1ccc(Cl)cc1)c1ccc(OCCN2CCCCCC2)cc1)c1ccccc1 [Compound 9, E/Z-1-(2-{4-[1-(4-Chloro-phenyl)-2-phenyl-propenyl]-phenoxy}-ethyl)-azepane]  1.99 ± 0.02
4. COc1ccc(C(C)=C(c2ccc(Cl)cc2)c2ccc(OCCN3CCCC3)cc2)cc1 [Compound 11, E/Z-1-(2-{4-[1-(4-Chloro-phenyl)-2-(4-methoxy-phenyl)-propenyl]-phenoxy}-ethyl)-pyrrolidine]  1.55 ± 0.12
5. COc1ccc(C(C)=C(c2ccc(Cl)cc2)c2ccc(OCCN3CCCCCC3)cc2)cc1 [Compound 14, E/Z-1-(2-{4-[1-(4-Chloro-phenyl)-2-(4-methoxy-phenyl)-propenyl]-phenoxy}-ethyl)-azepane]  1.53 ± 0.09
6. CC(=C(c1ccc(Cl)cc1)c1ccc(OCCN2CCCCC2)cc1)c1ccccc1 [Compound 7, E/Z-1-(2-{4-[1-(4-Chloro-phenyl)-2-phenyl-propenyl]-phenoxy}-ethyl)-piperidine]  1.35 ± 0.16
7. CC(=C(c1ccc(Cl)cc1)c1ccc(OCCCN(C)C)cc1)c1ccccc1 [Compound 5, E/Z-(3-{4-[1-(4-Chloro-phenyl)-2-phenyl-propenyl]-phenoxy}-propyl)-dimethyl-amine]  1.34 ± 0.15
8. CC(=C(c1ccc(Cl)cc1)c1ccc(OCCN2CCCC2)cc1)c1ccccc1 [Compound 6, E/Z-1-(2-{4-[1-(4-Chloro-phenyl)-2-phenyl-propenyl]-phenoxy}-ethyl)-pyrrolidine]  1.20 ± 0.19
9. COc1cc(C(C)=C(c2ccc(Cl)cc2)c2ccc(OCCN3CCCCC3)cc2)ccc1F [Compound 24, E/Z-1-(2-{4-[1-(4-Chlorophenyl)-2-(4-fluoro-3-methoxyphenyl)-propenyl]-phenoxy}-ethyl)-piperidine]  1.19 ± 0.10
10. COc1cc(C(C)=C(c2ccc(Cl)cc2)c2ccc(OCCN3CCOCC3)cc2)ccc1F [Compound 25, E/Z-4-(2-{4-[1-(4-Chlorophenyl)-2-(4-fluoro-3-methoxyphenyl)-propenyl]-phenoxy}-ethyl)-morpholine]  1.18 ± 0.03
11. CC(=C(c1ccc(Cl)cc1)c1ccc(OCCN2CCOCC2)cc1)c1ccccc1 [Compound 8, E/Z-4-(2-{4-[1-(4-Chloro-phenyl)-2-phenyl-propenyl]-phenoxy}-ethyl)-morpholine]  1.11 ± 0.26
12. COc1cc(C(C)=C(c2ccc(Cl)cc2)c2ccc(OCCN3CCCC3)cc2)ccc1F [Compound 23, E/Z-1-(2-{4-[1-(4-Chlorophenyl)-2-(4-fluoro-3-methoxyphenyl)-propenyl]-phenoxy}-ethyl)-pyrrolidine]  1.06 ± 0.05
13. COc1cc(C(C)=C(c2ccc(Cl)cc2)c2ccc(OCCN3CCCCCC3)cc2)ccc1F [Compound 26, E/Z-1-(2-{4-[1-(4-Chlorophenyl)-2-(4-fluoro-3-methoxyphenyl)-propenyl]-phenoxy}-ethyl)-azepane]  1.05 ± 0.12
14. COc1cc(C(C)=C(c2ccc(Cl)cc2)c2ccc(OCCCN(C)C)cc2)ccc1F [Compound 22, E/Z-(3-{4-[1-(4-Chlorophenyl)-2-(4-fluoro-3-methoxyphenyl)-propenyl]-phenoxy}-propyl)-dimethyl-amine]  0.97 ± 0.03
15. CCN(CC)CCOc1ccc(C(=C(C)c2ccc(F)c(OC)c2)c2ccc(Cl)cc2)cc1 [Compound 28, E/Z-(2-{4-[1-(4-Chlorophenyl)-2-(4-fluoro-3-methoxyphenyl)-propenyl]-phenoxy}-ethyl)-diethyl-amine]  0.86 ± 0.07
16. COc1cc(C(C)=C(c2ccc(Cl)cc2)c2ccc(OCCN(C)C)cc2)ccc1F [Compound 27, E/Z-(2-{4-[1-(4-Chlorophenyl)-2-(4-fluoro-3-methoxyphenyl)-propenyl]-phenoxy}-ethyl)-dimethyl-amine]  0.86 ± 0.04
